Source: patent US9890133B2 (priority 2011, dated 2018)
In brackets after ≈: the same amount, converted by molar mass.

Legend:
[1] = test system: Poliovirus 3; assay: microbe, parasite or virus in culture; assay type: cell-based; conditions: Enterovirus C, read-out: Poliovirus3 EC50
[2] = in vitro; conditions: human

Row | Compound | EC50 [1] | CC50 [2] | CC50 ([2]; Picorana CC50) | CC50 ([2]; Rhino CC50)
1 | COC(=O)c1ccc(C(=O)NC23C(=O)c4c(N)cccc4C2(O)Oc2cc(C(C)C)ccc23)cc1 (centres unmarked) [Example 189, Methyl-4-(1-amino-4b-hydroxy-7-isopropyl-10-oxo-9b,10-dihydro-4bH-benzo[d]indeno[1,2-b]furan-9b-ylcarbamoyl)benzoate] | < 0.01 µg/mL | > 10 µg/mL | 8.56 µg/mL (≈ 18.1 µM) | 
2 | CC(C)c1ccc2c(c1)OC1(O)c3cccc(N)c3C(=O)C21NC(=O)c1cccc(Cl)c1 (centres unmarked) [Example 190, N-(1-Amino-4b-hydroxy-7-isopropyl-10-oxo-9b,10-dihydro-4bH-indeno[1,2-b]benzofuran-9b-yl)-3-chlorobenzamide] | < 0.01 µg/mL | 5.52 µg/mL (≈ 12.3 µM) | > 10 µg/mL | 
3 | Cc1cc(C)cc(C(=O)NC23C(=O)c4c(N)cccc4C2(O)Oc2cc(C(C)C)ccc23)c1 (centres unmarked) [Example 191, N-(1-Amino-4b-hydroxy-7-isopropyl-10-oxo-9b,10-dihydro-4bH-indeno[1,2-b]benzofuran-9b-yl)-3,5-dimethylbenzamide] | < 0.01 µg/mL | > 10 µg/mL | 4.12 µg/mL (≈ 9.31 µM) | 
4 | CC(C)c1ccc2c(c1)OC1(O)c3cccc(N)c3C(=O)C21NC(=O)CF (centres unmarked) [Example 193, N-(1-Amino-4b-hydroxy-7-isopropyl-10-oxo-9b,10-dihydro-4bH-benzo[d]indeno[1,2-b]furan-9b-yl)-2-fluoroacetamide] | 0.011 µg/mL (≈ 0.0297 µM) |  | > 10 µg/mL | > 10 µg/mL
5 | CC(C)c1ccc2c(c1)OC1(O)c3cccc(N)c3C(=O)C21NC(=O)c1ccccn1 (centres unmarked) [Example 197, N-(1-Amino-4b-hydroxy-7-isopropyl-10-oxo-9b,10-dihydro-4bH-indeno[1,2-b]benzofuran-9b-yl)picolinamide] | < 0.01 µg/mL | 16 µg/mL (≈ 38.6 µM) | 34.5 µg/mL (≈ 82.9 µM) | 
6 | CC(C)c1ccc2c(c1)OC1(O)c3cccc(N)c3C(=O)C21NC(=O)c1cccnc1 (centres unmarked) [Example 198, N-(1-Amino-4b-hydroxy-7-isopropyl-10-oxo-9b,10-dihydro-4bH-indeno[1,2-b]benzofuran-9b-yl)nicotinamide] | < 0.01 µg/mL | 27.9 µg/mL (≈ 67.3 µM) | > 50 µg/mL | 
7 | CC(C)c1ccc2c(c1)OC1(O)c3cccc(N)c3C(=O)C21NC(=O)c1ccncc1 (centres unmarked) [Example 199, N-(1-Amino-4b-hydroxy-7-isopropyl-10-oxo-9b,10-dihydro-4bH-indeno[1,2-b]benzofuran-9b-yl)isonicotinamide] | < 0.01 µg/mL | 43 µg/mL (≈ 103 µM) | 48.3 µg/mL (≈ 116 µM) | 
8 | CC(C)c1ccc2c(c1)OC1(O)c3cccc(N)c3C(=O)C21NC(=O)c1cnccn1 (centres unmarked) [Example 200, N-(1-Amino-4b-hydroxy-7-isopropyl-10-oxo-9b,10-dihydro-4bH-indeno[1,2-b]benzofuran-9b-yl) pyrazine-2-carboxamide] | < 0.01 µg/mL | > 10 µg/mL |  | 
9 | CC(C)c1ccc2c(c1)OC1(O)c3cccc(N)c3C(=O)C21NC(=O)c1ccco1 (centres unmarked) [Example 201, N-(1-Amino-4b-hydroxy-7-isopropyl-10-oxo-9b,10-dihydro-4bH-indeno[1,2-b]benzofuran-9b-yl)furane-2-carboxamide] | < 0.01 µg/mL | > 10 µg/mL |  | 
10 | CC(C)c1ccc2c(c1)OC1(O)c3cccc(N)c3C(=O)C21NC(=O)c1ccc2ncccc2c1 (centres unmarked) [Example 203] | < 0.01 µg/mL | > 10 µg/mL |  | 
11 | CC(C)c1ccc2c(c1)OC1(O)c3cccc(N)c3C(=O)C21NC(=O)c1cc2ccccc2o1 (centres unmarked) [Example 204, N-(1-Amino-4b-hydroxy-7-isopropyl-10-oxo-9b,10-dihydro-4bH-benzo[d]indeno[1,2-b]furan-9b-yl)benzofurane-2-carboxamide] | 0.011 µg/mL (≈ 0.0242 µM) | > 10 µg/mL | > 4.51 µg/mL | 
12 | Cc1c(C(=O)NC23C(=O)c4c(N)cccc4C2(O)Oc2cc(C(C)C)ccc23)oc2ccccc12 (centres unmarked) [Example 205] | 0.036 µg/mL (≈ 0.0768 µM) | > 10 µg/mL |  | 
13 | Cc1ncsc1C(=O)NC12C(=O)c3c(N)cccc3C1(O)Oc1cc(C(C)C)ccc12 (centres unmarked) [Example 206, N-(1-Amino-4b-hydroxy-7-isopropyl-10-oxo-9b,10-dihydro-4bH-indeno[1,2-b]benzofuran-9b-yl)-4-methylthiazole-5-carboxamide] | < 0.01 µg/mL | > 10 µg/mL |  | 
14 | CC(C)c1ccc2c(c1)OC1(O)c3cccc(N)c3C(=O)C21NC(=O)[C@@H]1CSC(=O)N1 (stereo partly drawn) [Example 207, (4R)—N-(1-amino-4b-hydroxy-7-isopropyl-10-oxo-9b,10-dihydro-4bH-indeno[1,2-b]benzofuran-9b-yl)-2-oxothiazolidine-4-carboxamide] | < 0.01 µg/mL | > 10 µg/mL |  | 
15 | CC(C)c1ccc2c(c1)OC1(O)c3ccccc3C(=O)C21NC(=O)c1c[nH]c2ccccc12 (centres unmarked) [Example 209, N-(4b-Hydroxy-7-isopropyl-10-oxo-9b,10-dihydro-4bH-indeno[1,2-b]benzofuran-9b-yl)-1H-indole-3-carboxamide] | 0.036 µg/mL (≈ 0.0821 µM) | 8.43 µg/mL (≈ 19.2 µM) | > 10 µg/mL | 
16 | CC(C)c1ccc2c(c1)OC1(O)c3cccc(N)c3C(=O)C21NC(=O)c1n[nH]c2ccccc12 (centres unmarked) [Example 212, N-(1-Amino-4b-hydroxy-7-isopropyl-10-oxo-9b,10-dihydro-4bH-benzo[d]indeno[1,2-b]furan-9b-yl)-1H-indazole-3-carboxamide] | < 0.01 µg/mL | > 10 µg/mL |  | 
17 | CC(C)c1ccc2c(c1)OC1(O)c3cccc(N)c3C(=O)C21NC(=O)Cn1cnnn1 (centres unmarked) [Example 213, N-(1-Amino-4b-hydroxy-7-isopropyl-10-oxo-9b,10-dihydro-4bH-benzo[d]indeno[1,2-b]furan-9b-yl)-2-(1H-tetrazol-1-yl)acetamide] | < 0.01 µg/mL | > 10 µg/mL |  | 
18 | CC(C)c1ccc2c(c1)OC1(O)c3cccc(N)c3C(=O)C21NC(=O)c1cnc2ccccc2c1 (centres unmarked) [Example 214, N-(1-Amino-4b-hydroxy-7-isopropyl-10-oxo-9b,10-dihydro-4bH-indeno[1,2-b]benzofuran-9b-yl)quinoline-3-carboxamide] | < 0.01 µg/mL | > 10 µg/mL |  | 
19 | CC(C)c1ccc2c(c1)OC1(O)c3cccc(N)c3C(=O)C21NC(=O)c1ccnc2ccccc12 (centres unmarked) [Example 215, N-(1-Amino-4b-hydroxy-7-isopropyl-10-oxo-9b,10-dihydro-4bH-indeno[1,2-b]benzofuran-9b-yl)quinoline-4-carboxamide] | < 0.01 µg/mL | > 10 µg/mL |  | 
20 | COc1sccc1C(=O)NC12C(=O)c3c(N)cccc3C1(O)Oc1cc(C(C)C)ccc12 (centres unmarked) [Example 217, N-(1-Amino-4b-hydroxy-7-isopropyl-10-oxo-9b,10-dihydro-4bH-indeno[1,2-b]benzofuran-9b-yl)-2-methoxythiophene-3-carboxamide] | 0.038 µg/mL (≈ 0.0843 µM) | > 10 µg/mL | 4.24 µg/mL (≈ 9.41 µM) | 
21 | CC(C)c1ccc2c(c1)OC1(O)c3ccccc3C(=O)C21NC(=O)c1ccc2[nH]nnc2c1 (centres unmarked) [Example 221, N-(4b-Hydroxy-7-isopropyl-10-oxo-9b,10-dihydro-4bH-benzo[d]indeno[1,2-b]furan-9b-yl)-1H-benzo[d][1,2,3]triazole-5-carboxamide] | 0.016 µg/mL (≈ 0.0363 µM) | 6.53 µg/mL (≈ 14.8 µM) | 14.5 µg/mL (≈ 32.9 µM) | 
22 | CC(C)c1ccc2c(c1)OC1(O)c3ccccc3C(=O)C21NC(=O)c1ccc([N+](=O)[O-])s1 (centres unmarked) [Example 223, N-(4b-hydroxy-7-isopropyl-10-oxo-9b,10-dihydro-4bH-benzo[d]indeno[1,2-b]furan-9b-yl)-5-nitrothiophene-2-carboxamide] | < 0.01 µg/mL | 4.36 µg/mL (≈ 9.68 µM) | 7.46 µg/mL (≈ 16.6 µM) | 
23 | CC(C)c1ccc2c(c1)OC1(O)c3cccc(N)c3C(=O)C21NC(=O)C(=O)c1cccs1 (centres unmarked) [Example 231, N-(1-Amino4b-hydroxy-7-isopropyl-10-oxo-9b,10-dihydro-4bH-indeno[1,2-b]benzofuran-9b-yl)-2-oxo-2-(thiophen-2-yl)acetamide] | < 0.01 µg/mL | > 10 µg/mL | 8.64 µg/mL (≈ 19.3 µM) | 
24 | CC(C)c1ccc2c(c1)OC1(O)c3cccc(N)c3C(=O)C21NC(=O)c1ccc[nH]1 (centres unmarked) [Example 233, N-(1-Amino-4b-hydroxy-7-isopropyl-10-oxo-9b,10-dihydro-4bH-indeno[1,2-b]benzofuran-9b-yl)-1H-pyrrole-2-carboxamide] | < 0.01 µg/mL | > 10 µg/mL | 31.9 µg/mL (≈ 79 µM) | 
25 | COc1cc(C(=O)NC23C(=O)c4c(N)cccc4C2(O)Oc2cc(C(C)C)ccc23)ccn1 (centres unmarked) [Example 234, N-(1-Amino-4b-hydroxy-7-isopropyl-10-oxo-9b,10-dihydro-4bH-indeno[1,2-b]benzofuran-9b-yl)-2-methoxyisonicotinamide] | < 0.01 µg/mL | > 10 µg/mL | 9.1 µg/mL (≈ 20.4 µM) | 
26 | CC(C)c1ccc2c(c1)OC1(O)c3cccc(N)c3C(=O)C21NC(=O)c1cc2ccccc2s1 (centres unmarked) [Example 235, N-(1-Amino-4b-hydroxy-7-isopropyl-10-oxo-9b,10-dihydro-4bH-benzo[d]indeno[1,2-b]furan-9b-yl)benzo[b]thiophene-2-carboxamide] | < 0.01 µg/mL | 8.88 µg/mL (≈ 18.9 µM) | 7.97 µg/mL (≈ 16.9 µM) | 
27 | CC(C)c1ccc2c(c1)OC1(O)c3cccc(N)c3C(=O)C21NC(=O)c1cnnc2ccccc12 (centres unmarked) [Example 238, N-(1-Amino-4b-hydroxy-7-isopropyl-10-oxo-9b,10-dihydro-4bH-benzo[d]indeno[1,2-b]furan-9b-yl)cinnoline-4-carboxamide] | < 0.01 µg/mL | > 10 µg/mL | 8.33 µg/mL (≈ 17.9 µM) | 
28 | CC(C)c1ccc2c(c1)OC1(O)c3ccccc3C(=O)C21NC(=O)c1ccc2[nH]cnc2c1 (centres unmarked) [Example 240, N-(4b-hydroxy-7-isopropyl-10-oxo-9b,10-dihydro-4bH-benzo[d]indeno[1,2-b]furan-9b-yl)-1H-benzo[d]imidazole-5-carboxamide] | < 0.01 µg/mL | > 10 µg/mL | 8.25 µg/mL (≈ 18.8 µM) | 
29 | CC(C)c1ccc2c(c1)OC1(O)c3cccc(N)c3C(=O)C21NC(=O)c1n[nH]cc1[N+](=O)[O-] (centres unmarked) [Example 242, N-(1-Amino-4b-hydroxy-7-isopropyl-10-oxo-9b,10-dihydro-4bH-benzo[d]indeno[1,2-b]furan-9b-yl)-4-nitro-1H-pyrazole-3-carboxamide] | < 0.01 µg/mL | > 10 µg/mL | 8.55 µg/mL (≈ 19 µM) | 
30 | Cc1ccnc(C(=O)NC23C(=O)c4c(N)cccc4C2(O)Oc2cc(C(C)C)ccc23)c1 (centres unmarked) [Example 243, N-(1-Amino-4b-hydroxy-7-isopropyl-10-oxo-9b,10-dihydro-4bH-benzo[d]indeno[1,2-b]furan-9b-yl)-4-methylpicolinamide] | < 0.01 µg/mL | > 10 µg/mL | 7.36 µg/mL (≈ 17.1 µM) | 
